Data from PubChem BioAssay AID330 (DTP/NCI, 2004).
“And” between values parts separate entries of the source, which are not always exact repeats. Identical values can stand only once. Toxic doses and inconclusive results are not listed. How the source made its calls: active means survival T/C of 150% or more; inactive means T/C below 125% in these data. Peptide text beside a SMILES is read from it. * marks the point of attachment. Cbz = O=C(OCc1ccccc1)*

System: P388 leukemia ip, CD2F1 mice, survival T/C
Experiment: NCI In Vivo Anticancer Drug Screen. Data for tumor model P388 Leukemia (intraperitoneal) in CD2F1 (CDF1) mice
Details: endpoint: median survival time, higher = longer survival
Outline: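 Mice carrying the transplanted tumor received test compound or vehicle. Survival was recorded in each group, and the value is the treated-group measurement divided by that of the vehicle-treated control group.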

[1] = dose: 100.0 mg/kg/injection, schedule: Q01DX001 (ip), vehicle: saline with Tween-80
[2] = dose: 200.0 mg/kg/injection, schedule: Q01DX001 (ip), vehicle: saline with Tween-80
[3] = dose: 400.0 mg/kg/injection, schedule: Q01DX001 (ip), vehicle: saline with Tween-80
[4] = dose: 50.0 mg/kg/injection, schedule: Q01DX009 (ip), vehicle: saline
[5] = dose: 100.0 mg/kg/injection, schedule: Q01DX009 (ip), vehicle: saline
[6] = dose: 200.0 mg/kg/injection, schedule: Q01DX009 (ip), vehicle: saline
[7] = dose: 50.0 mg/kg/injection, schedule: Q01DX009 (ip), vehicle: saline with Tween-80
[8] = dose: 100.0 mg/kg/injection, schedule: Q01DX009 (ip), vehicle: saline with Tween-80
[9] = dose: 12.5 mg/kg/injection, schedule: Q01DX009 (ip), vehicle: saline with Tween-80
[10] = dose: 25.0 mg/kg/injection, schedule: Q01DX009 (ip), vehicle: saline with Tween-80
[11] = dose: 50.0 mg/kg/injection, schedule: Q01DX005 (ip), vehicle: Klucel (hydroxypropylcellulose) (HPC)
[12] = dose: 100.0 mg/kg/injection, schedule: Q01DX005 (ip), vehicle: Klucel (hydroxypropylcellulose) (HPC)

Measured: T/C

O=C(NC(Cc1ccccc1)C(=O)N1CCCC1C(=O)O)OCc1ccccc1 (stereo not drawn) (Cbz-Phe-Pro-OH; configuration not given here)
inactive: dose: 50.0 mg/kg/injection, schedule: Q01DX005 (ip), vehicle: saline with Tween-80 95 % of control | dose: 100.0 mg/kg/injection, schedule: Q01DX005 (ip), vehicle: saline with Tween-80 100 % of control | dose: 200.0 mg/kg/injection, schedule: Q01DX005 (ip), vehicle: saline with Tween-80 97 % of control

C/C=C/c1cccc(OC)c1OC
inactive: [1] 108 % of control | [2] 120 % of control | [3] 110 % of control

Oc1ccccc1C=Nc1ccc(Cl)cn1
inactive: [4] 99 % of control | [5] 100 % of control | [6] 107 % of control

CC1(C)Nc2ccccc2C(c2ccccc2)=NC1=O
inactive: dose: 60.0 mg/kg/injection, schedule: Q01DX005 (ip), vehicle: Klucel (hydroxypropylcellulose) (HPC) 101 % of control and 102 % of control | dose: 120.0 mg/kg/injection, schedule: Q01DX005 (ip), vehicle: Klucel (hydroxypropylcellulose) (HPC) 105 % of control and 98 % of control | dose: 240.0 mg/kg/injection, schedule: Q01DX005 (ip), vehicle: Klucel (hydroxypropylcellulose) (HPC) 104 % of control and 91 % of control

O=C1NC(=O)C23CC=CCC12CCCC3 (stereo not given)
inactive: dose: 50.0 mg/kg/injection, schedule: Q01DX009 (ip), vehicle: Klucel (hydroxypropylcellulose) (HPC) 101 % of control | dose: 100.0 mg/kg/injection, schedule: Q01DX009 (ip), vehicle: Klucel (hydroxypropylcellulose) (HPC) 100 % of control | dose: 200.0 mg/kg/injection, schedule: Q01DX009 (ip), vehicle: Klucel (hydroxypropylcellulose) (HPC) 100 % of control

Cc1[nH]c2ccc(N(C)C)cc2c(=O)c1CN1CCN(C)CC1
inactive: [7] 111 % of control | [8] 111 % of control | dose: 200.0 mg/kg/injection, schedule: Q01DX009 (ip), vehicle: saline with Tween-80 110 % of control

CCCCCCC(=O)c1c(O)c2ccccc2oc1=O
inactive: dose: 60.0 mg/kg/injection, schedule: Q01DX005 (ip), vehicle: saline with Tween-80 100 % of control | dose: 120.0 mg/kg/injection, schedule: Q01DX005 (ip), vehicle: saline with Tween-80 88 % of control

O=[N+]([O-])c1ccc(C2=Nc3ccccc3N=C(c3ccccc3O)C2)cc1
inactive: dose: 0.93 mg/kg/injection, schedule: Q01DX005 (ip), vehicle: saline with Tween-80 100 % of control | dose: 1.87 mg/kg/injection, schedule: Q01DX005 (ip), vehicle: saline with Tween-80 113 % of control | dose: 3.75 mg/kg/injection, schedule: Q01DX005 (ip), vehicle: saline with Tween-80 91 % of control and 94 % of control | dose: 15.0 mg/kg/injection, schedule: Q01DX005 (ip), vehicle: saline with Tween-80 91 % of control | dose: 240.0 mg/kg/injection, schedule: Q01DX005 (ip), vehicle: saline with Tween-80 90 % of control

O=C(Oc1cc([N+](=O)[O-])cc([N+](=O)[O-])c1)C(c1ccccc1)c1ccccc1
inactive: [9] 106 % of control | [10] 112 % of control | [7] 118 % of control

O=C1c2ccccc2C(O)(C#Cc2ccccc2)c2c1oc1c2ccc2ccccc21 (stereo not given)
inactive: [9] 97 % of control | [10] 92 % of control | [7] 90 % of control | [8] 108 % of control

CC(=O)C1=C(c2ccccc2)NC(=O)NC1c1ccco1 (stereo not given)
inactive: dose: 100.0 mg/kg/injection, schedule: Q04DX003 (ip), vehicle: saline with Tween-80 95 % of control | dose: 200.0 mg/kg/injection, schedule: Q04DX003 (ip), vehicle: saline with Tween-80 95 % of control | dose: 400.0 mg/kg/injection, schedule: Q04DX003 (ip), vehicle: saline with Tween-80 90 % of control

NC(=O)N/N=C1\CSCc2ccccc21
inactive: dose: 25.0 mg/kg/injection, schedule: Q01DX009 (ip), vehicle: other 93 % of control | dose: 50.0 mg/kg/injection, schedule: Q01DX009 (ip), vehicle: other 92 % of control | dose: 100.0 mg/kg/injection, schedule: Q01DX009 (ip), vehicle: other 93 % of control | dose: 200.0 mg/kg/injection, schedule: Q01DX009 (ip), vehicle: other 99 % of control | dose: 400.0 mg/kg/injection, schedule: Q01DX009 (ip), vehicle: other 117 % of control

CC(C)CCC1(CCCl)C(=O)NC(=O)NC1=O
inactive: [11] 102 % of control | [12] 106 % of control

COc1cccc2c1C(=O)c1c(O)c3c(c(O)c1C2=O)CC(O)(C(C)=O)CC3OC1OC(C)C(O)C(N)C1O (stereo not given)
inactive: dose: 3.13 mg/kg/injection, schedule: Q04DX003 (ip), vehicle: water 91 % of control | dose: 6.25 mg/kg/injection, schedule: Q04DX003 (ip), vehicle: water 110 % of control | dose: 12.5 mg/kg/injection, schedule: Q04DX003 (ip), vehicle: water 99 % of control | dose: 25.0 mg/kg/injection, schedule: Q04DX003 (ip), vehicle: water 100 % of control | dose: 50.0 mg/kg/injection, schedule: Q04DX003 (ip), vehicle: water 103 % of control

CC(C)(C)c1ccc(S(=O)(=O)O)cc1
inactive: [4] 103 % of control | [5] 100 % of control | [6] 86 % of control

O=C(Cn1ccnc1[N+](=O)[O-])NCCO
inactive: dose: 12.5 mg/kg/injection, schedule: Q01DX009 (ip), vehicle: water 113 % of control | dose: 25.0 mg/kg/injection, schedule: Q01DX009 (ip), vehicle: water 105 % of control | dose: 50.0 mg/kg/injection, schedule: Q01DX009 (ip), vehicle: water 101 % of control | dose: 100.0 mg/kg/injection, schedule: Q01DX009 (ip), vehicle: water 105 % of control | dose: 200.0 mg/kg/injection, schedule: Q01DX009 (ip), vehicle: water 114 % of control

O=C1CSC(c2ccccc2O)N1c1nc(-c2ccc(Cl)cc2)cs1 (stereo not given)
inactive: [1] 100 % of control | [2] 98 % of control | [3] 87 % of control

COC(=O)C12OCC34C(OC(=O)C(OC(=O)C=C(C)C)C13)C(OC(C)=O)C1C(C)=CC(=O)CC1(C)C4C(O)C2O (stereo not given) (tested in a mixture with another compound)
inactive: dose: 13.0 micrograms/kg/injection, schedule: Q01DX009 (ip), vehicle: saline + alcohol 96 % of control | dose: 25.0 micrograms/kg/injection, schedule: Q01DX009 (ip), vehicle: saline + alcohol 97 % of control | dose: 50.0 micrograms/kg/injection, schedule: Q01DX009 (ip), vehicle: saline + alcohol 100 % of control | dose: 100.0 micrograms/kg/injection, schedule: Q01DX009 (ip), vehicle: saline + alcohol 101 % of control | dose: 190.0 micrograms/kg/injection, schedule: Q01DX009 (ip), vehicle: saline + alcohol 102 % of control | dose: 380.0 micrograms/kg/injection, schedule: Q01DX009 (ip), vehicle: saline + alcohol 102 % of control | dose: 750.0 micrograms/kg/injection, schedule: Q01DX009 (ip), vehicle: saline + alcohol 106 % of control

COc1cccc2c1C(=O)c1c(O)c3c(c(O)c1C2=O)C[C@@](O)(/C(C)=N/NC(=O)c1ccc(O)cc1)C[C@@H]3OC1CC(N)C(O)C(C)O1 (stereo not given in full)
inactive: dose: 0.12 mg/kg/injection, schedule: Q01DX009 (ip), vehicle: water 115 % of control | dose: 0.25 mg/kg/injection, schedule: Q01DX009 (ip), vehicle: water 111 % of control | dose: 16.0 mg/kg/injection, schedule: Q01DX009 (ip), vehicle: water 111 % of control | dose: 20.0 mg/kg/injection, schedule: Q01DX001 (ip), vehicle: water 117 % of control
active: dose: 0.5 mg/kg/injection, schedule: Q01DX009 (ip), vehicle: water 152 % of control and 157 % of control | dose: 1.0 mg/kg/injection, schedule: Q01DX009 (ip), vehicle: water 160 % of control | dose: 2.0 mg/kg/injection, schedule: Q01DX009 (ip), vehicle: water 160 % of control and 180 % of control | dose: 4.0 mg/kg/injection, schedule: Q01DX009 (ip), vehicle: water 161 % of control and 171 % of control | dose: 10.0 mg/kg/injection, schedule: Q01DX001 (ip), vehicle: water 174 % of control

Cc1ccc(C(=O)C(C#N)=Nc2ccc(N(C)C)cc2)cc1
inactive: dose: 12.5 mg/kg/injection, schedule: Q01DX005 (ip), vehicle: Klucel (hydroxypropylcellulose) (HPC) 92 % of control | [11] 87 % of control and 91 % of control | [12] 92 % of control | dose: 200.0 mg/kg/injection, schedule: Q01DX005 (ip), vehicle: Klucel (hydroxypropylcellulose) (HPC) 99 % of control

C[C@@]12CCCC1=[N+]1CCc3ccccc3[C@@H]1CC2=O
inactive: dose: 100.0 mg/kg/injection, schedule: Q04DX002 (ip), vehicle: Klucel (hydroxypropylcellulose) (HPC) 101 % of control | dose: 200.0 mg/kg/injection, schedule: Q04DX002 (ip), vehicle: Klucel (hydroxypropylcellulose) (HPC) 102 % of control
